“And” between values parts separate entries of the source, which are not always exact repeats. Equal entries are not always repeated. Where two headings read alike, the source gives them in different places.
What was measured:
[1] = target: T1, porcine Aminopeptidase N (APN) (Sus scrofa, UniProt P15145); assay: in vitro inhibition assay of aminopeptidase N (spectrophotometric, L-leucine-p-nitroanilide substrate); type: biochemical; settings: microsomal aminopeptidase from porcine kidney (pAPN), L-leucine-p-nitroanilide 250 μM, PBS pH 7.2, 37° C., 1 hour, UV 405 nm
T1 construct: microsomal aminopeptidase from porcine kidney (pAPN, Sigma Aldrich) (18 units/mg protein); purchased Sigma Aldrich; host or cells: porcine kidney (tissue-derived enzyme preparation)
T1 sequence (P15145 1-963): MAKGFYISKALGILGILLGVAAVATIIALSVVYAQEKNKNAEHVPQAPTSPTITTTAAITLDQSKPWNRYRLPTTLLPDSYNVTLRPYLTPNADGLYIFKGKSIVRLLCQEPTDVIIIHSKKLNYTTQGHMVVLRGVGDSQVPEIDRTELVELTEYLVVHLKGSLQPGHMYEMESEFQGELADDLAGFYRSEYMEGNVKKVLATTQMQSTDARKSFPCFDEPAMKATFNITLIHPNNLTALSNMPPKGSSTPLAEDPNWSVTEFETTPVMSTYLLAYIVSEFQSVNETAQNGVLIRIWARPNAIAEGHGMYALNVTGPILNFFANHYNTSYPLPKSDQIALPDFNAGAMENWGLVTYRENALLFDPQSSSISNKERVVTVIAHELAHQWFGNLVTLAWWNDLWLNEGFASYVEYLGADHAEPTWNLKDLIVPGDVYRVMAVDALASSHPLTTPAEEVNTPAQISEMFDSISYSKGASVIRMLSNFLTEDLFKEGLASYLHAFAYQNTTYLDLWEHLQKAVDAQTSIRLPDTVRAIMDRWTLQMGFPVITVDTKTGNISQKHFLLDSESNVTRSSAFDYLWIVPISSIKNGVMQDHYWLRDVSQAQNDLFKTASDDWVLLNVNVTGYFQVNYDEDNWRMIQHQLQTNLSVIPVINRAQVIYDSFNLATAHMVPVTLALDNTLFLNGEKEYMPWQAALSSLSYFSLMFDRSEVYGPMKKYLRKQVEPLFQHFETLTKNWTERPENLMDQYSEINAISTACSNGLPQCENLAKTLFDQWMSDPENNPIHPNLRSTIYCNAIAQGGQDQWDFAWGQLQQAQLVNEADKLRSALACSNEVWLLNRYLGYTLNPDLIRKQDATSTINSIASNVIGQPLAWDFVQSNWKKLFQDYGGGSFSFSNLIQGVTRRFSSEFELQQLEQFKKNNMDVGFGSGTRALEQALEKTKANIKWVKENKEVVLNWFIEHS
Protocol: IC50 values were calculated by following the formation of p-nitroaniline. Formation of p-nitroaniline was monitored by measurement of the UV absorption at 405 nm on a Hidex Sense plate reader. The assay was performed in a 96-well plate in PBS buffer (pH 7.2, 1.47 mM KH2PO4, 7.8 mM Na2HPO4, 137 mM NaCl, 2.7 mM KCl, 1.8 mM CaCl2, 1.8 mM MgCl2) at 37° C. with a total volume of 100 μL. […] The peptides were incubated with the enzyme (1.0 μg/mL) for 5 min. before a solution of L-leucine-p-nitroanilide was added with a final concentration of 250 μM. The plate was incubated at 37° C. for 1 hour before the p-nitroaniline was detected. […] For the calculation of the IC50 values log of the concentration was plotted against the UV absorption in GraphPad Prism 5 using nonlinear regression (variable slope (four parameters) with interpolation) for analysis.

[2] = amide bond, DMF, 25.0 °C
[3] = 25.0 °C
[4] = 25.0 °C; remark: listed apart in the source
[5] = amide bond, 12-membered ring, DEPBT/DIPEA, DMF, 1.0 mM

Question: For `N=C(N)NCCC[C@@H]1NC2(CNC(=O)[C@H](CC(N)=O)NC(=O)[C@@H](N)CSSC[C@@H](C(=O)O)NC1=O)COC2` [Compound 12, Cyclo(H-CVs-Asn-GOx-Arg-CVs-OH)], which IC50 [1] is on record?
Answer: 175 µM

Question: With `CC(C)C[C@@H]1NC(=O)[C@H](Cc2ccc(O)cc2)NC(=O)[C@H](C)NC2(CNC(=O)[C@H](C)NC1=O)COC2` [Cyclo(Ala-GOx-Ala-Tyr-Leu)] as the compound, how does the ring closure, yield of all isomers ([2]; from CC(C)C[C@H](NC(=O)[C@H](Cc1ccc(O)cc1)NC(=O)[C@H](C)NC1(CNC(=O)[C@H](C)N)COC1)C(=O)O, DEPBT/DIPEA, 1.0 mM, 24.0 h) read?
Answer: 54%

Question: For `CC(C)C[C@@H]1NC(=O)[C@H](Cc2ccc(O)cc2)NC(=O)[C@H](C)NC(=O)CNC(=O)[C@H](C)NC1=O` [Cyclo(Ala-Gly-Ala-Tyr-Leu)], which ring closure, yield of all isomers ([2]; from CC(C)C[C@H](NC(=O)[C@H](Cc1ccc(O)cc1)NC(=O)[C@H](C)NC(=O)CNC(=O)[C@H](C)N)C(=O)O, DEPBT/DIPEA, 1.0 mM, 24.0 h) is on record?
Answer: 42%

Question: For `CC(C)C[C@@H]1NC(=O)[C@H](Cc2cn(C(=O)OC(C)(C)C)c3ccccc23)NC(=O)CNC2(CNC1=O)COC2` [Cyclo(Leu-GOx-Gly-Trp(Boc))], which ring closure, yield of all isomers ([2]; from CC(C)C[C@H](N)C(=O)NCC1(NCC(=O)N[C@@H](Cc2cn(C(=O)OC(C)(C)C)c3ccccc23)C(=O)O)COC1, DEPBT, 1.0 mM, 64.0 h, 6 steps) is on record?
Answer: 39%

Question: For `CC(C)C[C@@H]1NC(=O)[C@H](Cc2c[nH]c3ccccc23)NC(=O)CNC2(COC2)[C@H](C)NC1=O` [Cyclo(Trp-Leu-AOx-Gly)], which ring closure, yield of all isomers ([2]; from CC(C)C[C@H](NC(=O)[C@@H](N)Cc1c[nH]c2ccccc12)C(=O)N[C@@H](C)C1(NCC(=O)O)COC1, DEPBT, 1.0 mM, 48.0 h) is on record?
Answer: 50%

Question: With `CC(C)C[C@@H]1NC(=O)[C@H](Cc2c[nH]c3ccccc23)NC(=O)CNC2(CNC1=O)COC2` [Cyclo(Trp-Leu-GOx-Gly)] as the compound, how does the ring closure, yield of all isomers ([2]; from CC(C)C[C@H](NC(=O)[C@@H](N)Cc1c[nH]c2ccccc12)C(=O)NCC1(NCC(=O)O)COC1, DEPBT/DIPEA, 1.0 mM, 48.0 h) read?
Answer: 65%

Question: Which ring closure, yield of all isomers ([2]; from CC(C)C[C@H](NC(=O)[C@@H](N)Cc1c[nH]c2ccccc12)C(=O)NCC(=O)NCC(=O)O, PyBOP/DIPEA, 1.0 mM, 48.0 h) does the source give for `CC(C)C[C@@H]1NC(=O)[C@H](Cc2c[nH]c3ccccc23)NC(=O)CNC(=O)CNC1=O` [Cyclo(Trp-Leu-Gly-Gly)] here?
Answer: 15%

Question: With `CC(C)C[C@@H]1NC(=O)[C@H](Cc2ccccc2)NC(=O)[C@H]([C@@H](C)OC(C)(C)C)NC2(CNC(=O)[C@H](C(C)C)NC(=O)[C@H](Cc3ccc(OC(C)(C)C)cc3)NC1=O)CN(C(=O)OC(C)(C)C)C2` [Cyclo-(Leu-Tyr(^tBu)-Val-GAz(Boc)-Thr(^tBu)-Phe)] as the compound, how does the ring closure, yield of all isomers ([2]; from CC(C)C[C@H](N)C(=O)N[C@@H](Cc1ccc(OC(C)(C)C)cc1)C(=O)N[C@H](C(=O)NCC1(N[C@H](C(=O)N[C@@H](Cc2ccccc2)C(=O)O)[C@@H](C)OC(C)(C)C)CN(C(=O)OC(C)(C)C)C1)C(C)C, DEPBT, 5.0 mM, 48.0 h) read?
Answer: 57%

Question: Which ring closure, yield of all isomers ([2]; from C[C@@H](OC(C)(C)C)[C@H](NC1(CNC(=O)[C@H](CCC(=O)OC(C)(C)C)NC(=O)[C@@H](N)Cc2ccccc2)CN(C(=O)OC(C)(C)C)C1)C(=O)NCC(=O)O, DEPBT, 5.0 mM, 68.0 h) does the source give for `C[C@@H](OC(C)(C)C)[C@@H]1NC2(CNC(=O)[C@H](CCC(=O)OC(C)(C)C)NC(=O)[C@H](Cc3ccccc3)NC(=O)CNC1=O)CN(C(=O)OC(C)(C)C)C2` [Cyclo-(Phe-Glu(^tBu)-GAz(Boc)-Thr(^tBu)-Gly)] here?
Answer: 73%

Question: For Cyclo(Ala-GOx-Ala-Tyr-Leu), which ring closure, isolated yield ([3]; amide bond, 15-membered ring, DEPBT/DIEA, DMF, 1.0 mM) is on record?
Answer: 54%

Question: With Cyclo(Ala-Gly-Ala-Tyr-Leu) as the compound, how does the ring closure, isolated yield ([3]; amide bond, 15-membered ring, DEPBT/DIPEA, DMF, 1.0 mM) read?
Answer: 42%

Question: Which ring closure, yield after HPLC ([4]; amide bond, 15-membered ring, DEPBT/DIPEA, DMF, 1.0 mM, with chain assembly) does the source give for Cyclo(Ala-Trp-GOx-Gly-Leu) here?
Answer: 13%

Question: With Cyclo(Boc-Cys-GOx-Cys-OtBu) as the compound, how does the ring closure, isolated yield ([3]; disulfide bond, 11-membered ring, I2, MeOH, 5.0 mM) read?
Answer: 64%

Question: With Cyclo(H-CVs-Asn-GOx-Arg-CVs-OH) as the compound, how does the ring closure, yield after HPLC ([4]; disulfide bond, 17-membered ring, I2, MeOH, 10.0 mM, 2 steps) read?
Answer: 32%

Question: With Cyclo(Leu-GOx-Gly-Trp(Boc)) as the compound, how does the ring closure, isolated yield ([3]; amide bond, 12-membered ring, DEPBT/DIPEA, DMF, 1.0 mM, with chain assembly) read?
Answer: 39%

Question: Which ring closure, yield after HPLC ([4]; amide bond, 18-membered ring, DEPBT/DIPEA, DMF, 1.0 mM, with chain assembly) does the source give for Cyclo(Met-Ala-Trp-GOx-Gly-Leu) here?
Answer: 7%

Question: Which ring closure, yield after HPLC ([4]; amide bond, 21-membered ring, DEPBT/DIPEA, DMF, 1.0 mM, with chain assembly) does the source give for Cyclo(Ser-Met-Ala-Trp-GOx-Gly-Leu) here?
Answer: 13%

Question: With Cyclo(Trp-Leu-AOx-Gly) as the compound, how does the ring closure, isolated yield [3, 5] read?
Answer: 49% and 50%

Question: Which ring closure, isolated yield ([3]; amide bond, 12-membered ring, DEPBT/DIEA, DMF, 1.0 mM) does the source give for Cyclo(Trp-Leu-GOx-Gly) here?
Answer: 65%

Question: For Cyclo(Trp-Leu-Gly-Gly), which ring closure, isolated yield ([3]; amide bond, 12-membered ring, PyBOP/DIEA, DMF, 1.0 mM) is on record?
Answer: 15%

Question: For Cyclo-((D)Pro-Leu-GAz(Boc)-Gly), which ring closure, isolated yield [3, 5] is on record?
Answer: 79%

Question: Which ring closure, isolated yield ([3]; amide bond, 18-membered ring, DEPBT/DIPEA, DMF, 5.0 mM) does the source give for “Cyclo-(Leu-Tyr(^tBu)-Val-GAz(Boc)-Thr(^tBu)-Phe)” here?
Answer: 57%

Question: Which ring closure, isolated yield ([3]; amide bond, 15-membered ring, DEPBT/DIPEA, DMF, 5.0 mM) does the source give for “Cyclo-(Phe-Glu(^tBu)-GAz(Boc)-Thr(^tBu)-Gly)” here?
Answer: 73%

From US11713339B2, “Macrocyclization of peptidomimetics” (UNIVERSITY OF WARWICK, priority 2018, dated 2023)
